Laboratory results from patent US8859572B2, “Sulfone substituted 2,3-dihydroimidazo [1,2-C] quinazoline derivatives useful for treating hyper-proliferative disorders and diseases with angiogenesis” (Bayer Intellectual Property GmbH, priority 2008, dated 2014).

Target: T1, PI3Kβ (recombinant truncated form (ΔN1-108) of the human p110β subunit of PI3K) (Homo sapiens, UniProt P42338)
T1 construct: His6 (N); made in house; host or cells: Spodoptera frugiperda Sf9 insect cells
Assay: Solid-phase lipid kinase assay of PI3Kβ
Type: biochemical
Settings: 7.5 ng protein/well, final 10 μM ATP, 2 h at rt
Description: To assess inhibition of PI3Kα by compounds, the Maxisorp™ plates were coated with 50 μL/well of a solution containing 50 μg/ml PtdIns and 50 μg/ml PtdSer dissolved in chloroform:ethanol (3:7). The plates were subsequently air-dried by incubation for at least 2 h in a fume hood. The reaction was set up by mixing 25 μL/well of assay buffer 2×(100 mM MOPSO/NaOH, 0.2 M NaCl, pH 7.0, 8 mM MgCl2, 2 mg/mL BSA (fatty acid-free)), and 7.5 ng/well PI3Kα in the lipid pre-coated plate. Test compounds at different concentrations (0.0, 0.003, 0.01 0.03, 0.1, 0.3, 1.0, 3.0 and 10 μM) were added in 2% DMSO. The reaction was initiated by adding 20 μL/well of ATP mix (final 10 μM ATP; 0.05 μCi/well [γ^33P]ATP). After incubation at rt for 2 h, the reaction was terminated by adding 50 μl/well stop solution (50 mM EDTA, pH 8.0). The plate was then washed twice with Tris-buffered saline (TBS, pH 7.4). MicroScint PS™ (PACKARD) scintillation mix was added at 100 μL/well, and radioactivity was counted using a TopCount™ (PACKARD) scintillation counter.
The inhibition percent at each concentration of compound was calculated, and IC50 values were determined from the inhibition of curve.
A recombinant truncated form (ΔN1-108) of the human p110β subunit of PI3K with an N-terminal His6-Tag was expressed in S. frugiperda 9 insect cells. Recombinant human PI3Kγ (full length human PI3K p110γ fused with a His6-tag at the C-terminus expressed in S. frugiperda 9 insect cells) was obtained from ALEXIS BIOCHEMICALS (#201-055-0010; San Diego, Calif.).
Kinase assays using recombinant truncated p110β or the full length p110γ were performed in a similar manner as described in the determination of IC50 values of compounds in the kinase assay of PI3Kα except that these isoforms were assayed using 7.5 ng and 25.0 ng of protein/well, respectively.

T1 sequence (P42338 109-1070): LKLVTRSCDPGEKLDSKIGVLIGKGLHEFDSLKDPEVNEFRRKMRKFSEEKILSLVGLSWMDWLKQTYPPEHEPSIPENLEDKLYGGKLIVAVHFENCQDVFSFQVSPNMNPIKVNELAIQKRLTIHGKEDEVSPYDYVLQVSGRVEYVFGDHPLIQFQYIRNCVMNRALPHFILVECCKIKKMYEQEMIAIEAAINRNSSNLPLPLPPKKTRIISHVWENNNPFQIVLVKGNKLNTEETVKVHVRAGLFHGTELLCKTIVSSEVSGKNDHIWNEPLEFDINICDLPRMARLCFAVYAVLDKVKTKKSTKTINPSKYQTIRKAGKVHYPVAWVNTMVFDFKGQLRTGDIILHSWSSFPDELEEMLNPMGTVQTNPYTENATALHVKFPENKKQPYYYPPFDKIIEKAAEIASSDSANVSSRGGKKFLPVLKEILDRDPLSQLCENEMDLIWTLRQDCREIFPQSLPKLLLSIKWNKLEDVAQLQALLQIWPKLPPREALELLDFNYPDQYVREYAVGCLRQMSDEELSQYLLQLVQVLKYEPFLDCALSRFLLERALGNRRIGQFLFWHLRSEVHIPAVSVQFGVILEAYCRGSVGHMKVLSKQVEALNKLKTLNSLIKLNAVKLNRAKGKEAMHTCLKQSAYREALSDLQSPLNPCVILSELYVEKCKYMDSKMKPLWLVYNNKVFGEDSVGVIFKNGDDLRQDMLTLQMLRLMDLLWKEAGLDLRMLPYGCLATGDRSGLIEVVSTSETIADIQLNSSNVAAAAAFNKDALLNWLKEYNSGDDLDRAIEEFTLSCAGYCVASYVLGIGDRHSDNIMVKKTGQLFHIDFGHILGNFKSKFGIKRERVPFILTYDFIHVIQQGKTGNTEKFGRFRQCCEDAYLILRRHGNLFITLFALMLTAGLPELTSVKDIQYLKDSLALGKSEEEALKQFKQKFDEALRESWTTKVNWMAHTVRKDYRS

IC50 [nM] | SMILES
< 100 | COc1c(OCCCS(=O)(=O)N2CCN(C)CC2)ccc2c1N=C(NC(=O)c1cccnc1)N1CCN=C21 [Example 1, N-(7-methoxy-8-{3-[(4-methylpiperazin-1-yl)sulfonyl]propoxy}-2,3-dihydroimidazo[1,2-c]quinazolin-5-yl)nicotinamide]
< 100 | Nc1ncc(C(=O)NC2=Nc3cc(OCCCS(=O)(=O)N4CCOCC4)ccc3C3=NCCN23)cn1 [Example 29, 2-amino-N-{8-[3-(morpholin-4-ylsulfonyl)propoxy]-2,3-dihydroimidazo[1,2-c]quinazolin-5-yl}pyrimidine-5-carboxamide]
< 100 | COc1c(OCCCN2CCS(=O)(=O)CC2)ccc2c1N=C(NC(=O)c1ccc(N)nc1)N1CCN=C21 [Example 19, 6-amino-N-{8-[3-(1,1-dioxidothiomorpholin-4-yl)propoxy]-7-methoxy-2,3-dihydroimidazo[1,2-c]quinazolin-5-yl}nicotinamide]
< 100 | COc1c(OCCCS(=O)(=O)N2CCOCC2)ccc2c1N=C(NC(=O)c1cccnc1)N1CCN=C21 [Example 3, N-{7-methoxy-8-[3-(morpholin-4-ylsulfonyl)propoxy]-2,3-dihydroimidazo[1,2-c]quinazolin-5-yl}nicotinamide]
< 100 | CN(C)S(=O)(=O)CCCOc1cccc2c1N=C(NC(=O)c1cccnc1)N1CCN=C21 [Example 11, N-(7-{3-[(dimethylamino)sulfonyl]propoxy}-2,3-dihydroimidazo[1,2-c]quinazolin-5-yl)nicotinamide]
< 100 | COc1c(OCCCN2CCS(=O)(=O)CC2)ccc2c1N=C(NC(=O)c1cnc(N)nc1)N1CCN=C21 [Example 21, 2-amino-N-{8-[3-(1,1-dioxidothiomorpholin-4-yl)propoxy]-7-methoxy-2,3-dihydroimidazo[1,2-c]quinazolin-5-yl}pyrimidine-5-carboxamide]
< 100 | COc1c(OCc2ccc(S(C)(=O)=O)cc2)ccc2c1N=C(NC(=O)c1ccc(N)nc1)N1CCN=C21 [Example 20, 6-amino-N-(7-methoxy-8-{[4-(methylsulfonyl)benzyl]oxy}-2,3-dihydroimidazo[1,2-c]quinazolin-5-yl)nicotinamide]
< 100 | COc1c(OCc2ccc(S(C)(=O)=O)cc2)ccc2c1N=C(NC(=O)c1cnc(N)nc1)N1CCN=C21 [Example 16, 2-amino-N-(7-methoxy-8-{[4-(methylsulfonyl)benzyl]oxy}-2,3-dihydroimidazo[1,2-c]quinazolin-5-yl)pyrimidine-5-carboxamide]
